Experimental data reported in the supplement of paper PMC10307832.

What was measured:
Experiment in all cases: relative viability (nuclei count vs DMSO), 5 days (fraction); higher = more cells survive
201T = system: 201T
Summary of the method: (§1)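 For relative viability, nuclei counts in treated wells were divided by those in vehicle wells. Lung cancer cell lines had been pin-tool dosed in 1536-well plates the day after seeding and cultured for 5 days, then fixed and stained in one step (final 0.05% Triton X-100, 1% formaldehyde, 1 ug/ml Hoechst) and imaged at 4×. Doses were one drug alone or a fixed anchor-drug dose plus five library-drug doses (not always all listed) in √10 steps, and values are duplicate-plate medians.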

BEN = system: BEN
Summary of the method: as §1

EMC-BAC-2 = system: EMC-BAC-2
Summary of the method: as §1

HARA = system: HARA
Summary of the method: as §1

LCLC-103H = system: LCLC-103H
Summary of the method: as §1

LOU-NH91 = system: LOU-NH91
Summary of the method: as §1

NCI-H1395 = system: NCI-H1395
Summary of the method: as §1

NCI-H1666 = system: NCI-H1666
Summary of the method: as §1

NCI-H1993 = system: NCI-H1993
Summary of the method: as §1

NCI-H2009 = system: NCI-H2009
Summary of the method: as §1

NCI-H2023 = system: NCI-H2023
Summary of the method: as §1

NCI-H2087 = system: NCI-H2087
Summary of the method: as §1

NCI-H2126 = system: NCI-H2126
Summary of the method: as §1

NCI-H2347 = system: NCI-H2347
Summary of the method: as §1

NCI-H23 = system: NCI-H23
Summary of the method: as §1

NCI-H3122 = system: NCI-H3122
Summary of the method: as §1

NCI-H441 = system: NCI-H441
Summary of the method: as §1

NCI-H596 = system: NCI-H596
Summary of the method: as §1

NCI-H647 = system: NCI-H647
Summary of the method: as §1

NCI-H650 = system: NCI-H650
Summary of the method: as §1

NCI-H727 = system: NCI-H727
Summary of the method: as §1

NCI-H838 = system: NCI-H838
Summary of the method: as §1

**Q.** Which results are given for NC(=O)Nc1cc(-c2cccc(F)c2)sc1C(=O)N[C@H]1CCCNC1 [AZD7762] + Cc1nc(Nc2ncc(C(=O)Nc3c(C)cccc3Cl)s2)cc(N2CCN(CCO)CC2)n1 [Dasatinib] (partner 0.075 µM)?
**A.** relative viability (201T; first compound 0.01 µM): 0.592; relative viability (201T; first compound 0.03162 µM): 0.584; relative viability (201T; first compound 0.1 µM): 0.602; relative viability (201T; first compound 0.3162 µM): 0.567; relative viability (201T; first compound 1 µM): 0.473; relative viability (BEN; first compound 0.01 µM): 0.253; relative viability (BEN; first compound 0.03162 µM): 0.297; relative viability (BEN; first compound 0.1 µM): 0.282; relative viability (BEN; first compound 0.3162 µM): 0.301; relative viability (BEN; first compound 1 µM): 0.328; relative viability (EMC-BAC-2; first compound 0.01 µM): 0.373; relative viability (EMC-BAC-2; first compound 0.03162 µM): 0.37; relative viability (EMC-BAC-2; first compound 0.1 µM): 0.359; relative viability (EMC-BAC-2; first compound 0.3162 µM): 0.346; relative viability (EMC-BAC-2; first compound 1 µM): 0.322; relative viability (HARA; first compound 0.01 µM): 0.306; relative viability (HARA; first compound 0.03162 µM): 0.304; relative viability (HARA; first compound 0.1 µM): 0.275; relative viability (HARA; first compound 0.3162 µM): 0.286; relative viability (HARA; first compound 1 µM): 0.164; relative viability (LCLC-103H; first compound 0.01 µM): 0.555; relative viability (LCLC-103H; first compound 0.03162 µM): 0.463; relative viability (LCLC-103H; first compound 0.1 µM): 0.422; relative viability (LCLC-103H; first compound 0.3162 µM): 0.515; relative viability (LCLC-103H; first compound 1 µM): 0.284; relative viability (LOU-NH91; first compound 0.01 µM): 0.561; relative viability (LOU-NH91; first compound 0.03162 µM): 0.596; relative viability (LOU-NH91; first compound 0.1 µM): 0.558; relative viability (LOU-NH91; first compound 0.3162 µM): 0.517; relative viability (LOU-NH91; first compound 1 µM): 0.49; relative viability (NCI-H1395; first compound 0.01 µM): 0.449; relative viability (NCI-H1395; first compound 0.03162 µM): 0.424; relative viability (NCI-H1395; first compound 0.1 µM): 0.427; relative viability (NCI-H1395; first compound 0.3162 µM): 0.371; relative viability (NCI-H1395; first compound 1 µM): 0.302; relative viability (NCI-H1666; first compound 0.01 µM): 0.909; relative viability (NCI-H1666; first compound 0.03162 µM): 0.88; relative viability (NCI-H1666; first compound 0.1 µM): 0.838; relative viability (NCI-H1666; first compound 0.3162 µM): 0.593; relative viability (NCI-H1666; first compound 1 µM): 0.594; relative viability (NCI-H1993; first compound 0.01 µM): 0.629; relative viability (NCI-H1993; first compound 0.03162 µM): 0.599; relative viability (NCI-H1993; first compound 0.1 µM): 0.481; relative viability (NCI-H1993; first compound 0.3162 µM): 0.574; relative viability (NCI-H1993; first compound 1 µM): 0.588; relative viability (NCI-H2009; first compound 0.01 µM): 0.334; relative viability (NCI-H2009; first compound 0.03162 µM): 0.287; relative viability (NCI-H2009; first compound 0.1 µM): 0.342; relative viability (NCI-H2009; first compound 0.3162 µM): 0.282; relative viability (NCI-H2009; first compound 1 µM): 0.181; relative viability (NCI-H2023; first compound 0.01 µM): 0.513; relative viability (NCI-H2023; first compound 0.03162 µM): 0.425; relative viability (NCI-H2023; first compound 0.1 µM): 0.328; relative viability (NCI-H2023; first compound 0.3162 µM): 0.159; relative viability (NCI-H2023; first compound 1 µM): 0.0942; relative viability (NCI-H2087; first compound 0.01 µM): 0.887; relative viability (NCI-H2087; first compound 0.03162 µM): 0.979; relative viability (NCI-H2087; first compound 0.1 µM): 0.919; relative viability (NCI-H2087; first compound 0.3162 µM): 0.773; relative viability (NCI-H2087; first compound 1 µM): 0.517; relative viability (NCI-H2126; first compound 0.01 µM): 0.658; relative viability (NCI-H2126; first compound 0.03162 µM): 0.665; relative viability (NCI-H2126; first compound 0.1 µM): 0.639; relative viability (NCI-H2126; first compound 0.3162 µM): 0.648; relative viability (NCI-H2126; first compound 1 µM): 0.402; relative viability (NCI-H2347; first compound 0.01 µM): 0.36; relative viability (NCI-H2347; first compound 0.03162 µM): 0.306; relative viability (NCI-H2347; first compound 0.1 µM): 0.346; relative viability (NCI-H2347; first compound 0.3162 µM): 0.35; relative viability (NCI-H2347; first compound 1 µM): 0.253; relative viability (NCI-H23; first compound 0.01 µM): 0.961; relative viability (NCI-H23; first compound 0.03162 µM): 0.832; relative viability (NCI-H23; first compound 0.1 µM): 0.877; relative viability (NCI-H23; first compound 0.3162 µM): 0.567; relative viability (NCI-H23; first compound 1 µM): 0.313; relative viability (NCI-H3122; first compound 0.01 µM): 0.893; relative viability (NCI-H3122; first compound 0.03162 µM): 0.739; relative viability (NCI-H3122; first compound 0.1 µM): 0.823; relative viability (NCI-H3122; first compound 0.3162 µM): 0.544; relative viability (NCI-H3122; first compound 1 µM): 0.625; relative viability (NCI-H441; first compound 0.01 µM): 0.773; relative viability (NCI-H441; first compound 0.03162 µM): 0.68; relative viability (NCI-H441; first compound 0.1 µM): 0.555; relative viability (NCI-H441; first compound 0.3162 µM): 0.556; relative viability (NCI-H441; first compound 1 µM): 0.384; relative viability (NCI-H596; first compound 0.01 µM): 0.66; relative viability (NCI-H596; first compound 0.03162 µM): 0.632; relative viability (NCI-H596; first compound 0.1 µM): 0.715; relative viability (NCI-H596; first compound 0.3162 µM): 0.611; relative viability (NCI-H596; first compound 1 µM): 0.481; relative viability (NCI-H647; first compound 0.01 µM): 0.214; relative viability (NCI-H647; first compound 0.03162 µM): 0.184; relative viability (NCI-H647; first compound 0.1 µM): 0.197; relative viability (NCI-H647; first compound 0.3162 µM): 0.143; relative viability (NCI-H647; first compound 1 µM): 0.0925; relative viability (NCI-H650; first compound 0.01 µM): 0.455; relative viability (NCI-H650; first compound 0.03162 µM): 0.539; relative viability (NCI-H650; first compound 0.1 µM): 0.475; relative viability (NCI-H650; first compound 0.3162 µM): 0.505; relative viability (NCI-H650; first compound 1 µM): 0.412; relative viability (NCI-H727; first compound 0.01 µM): 0.374; relative viability (NCI-H727; first compound 0.03162 µM): 0.422; relative viability (NCI-H727; first compound 0.1 µM): 0.35; relative viability (NCI-H727; first compound 0.3162 µM): 0.284; relative viability (NCI-H727; first compound 1 µM): 0.191; relative viability (NCI-H838; first compound 0.01 µM): 0.322; relative viability (NCI-H838; first compound 0.03162 µM): 0.276; relative viability (NCI-H838; first compound 0.1 µM): 0.258; relative viability (NCI-H838; first compound 0.3162 µM): 0.251; relative viability (NCI-H838; first compound 1 µM): 0.24
